Data as given in patent publication US10526311B2 (ASTEX THERAPEUTICS LIMITED, priority 2015, dated 2020).

How the values were obtained:
[1] = test system: SN40R2 (MDM2 amplified, p53 mutated osteosarcoma); assay: Protocol A: SN40R2 growth inhibition (SRB); details: 72 h, read-out: SN40R2 IC50 (Protocol A)
[2] = test system: SN40R2; assay: Protocol B: SN40R2 CellTiter-Glo cell viability; details: 72 h, read-out: SN40R2 IC50 (Protocol B)
[3] = test system: SJSA-1 (MDM2 amplified, p53 wild-type osteosarcoma); assay: Protocol A: SJSA-1 growth inhibition (SRB); details: Homo sapiens, SJSA-1, 72 h, read-out: SJSA-1 IC50 (Protocol A), SJSA-1 cells, SRB, 72 hrs
[4] = molecular target: MDM2-p53 interaction (in vitro translated MDM2, biotinylated IP3 peptide) (Homo sapiens, UniProt Q00987); assay: MDM2-p53 interaction 96-well plate binding assay (ELISA); details: @ 0.0010 μM; read-out: MDM2 % @ concentration
Chain of MDM2-p53 interaction (in vitro translated MDM2, biotinylated IP3 peptide) (Q00987 whole entry): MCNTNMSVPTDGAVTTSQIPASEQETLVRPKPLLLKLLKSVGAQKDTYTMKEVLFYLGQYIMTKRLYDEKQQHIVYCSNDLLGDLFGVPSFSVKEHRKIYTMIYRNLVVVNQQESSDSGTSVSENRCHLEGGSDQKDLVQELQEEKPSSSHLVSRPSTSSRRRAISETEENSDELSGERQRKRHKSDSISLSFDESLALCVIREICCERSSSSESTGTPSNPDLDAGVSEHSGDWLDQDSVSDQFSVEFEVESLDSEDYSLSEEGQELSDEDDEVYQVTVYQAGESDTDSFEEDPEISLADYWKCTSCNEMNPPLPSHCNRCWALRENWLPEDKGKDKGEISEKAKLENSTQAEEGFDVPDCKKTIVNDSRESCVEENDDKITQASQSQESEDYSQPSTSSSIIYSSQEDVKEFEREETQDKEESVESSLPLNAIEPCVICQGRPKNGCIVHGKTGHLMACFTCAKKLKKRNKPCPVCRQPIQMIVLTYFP

[5] = test system: SJSA-1; assay: Protocol B: SJSA-1 CellTiter-Glo cell viability; details: Homo sapiens, SJSA-1, 72 h, read-out: SJSA1 IC50 (Protocol B), SJSA-1 cells, CellTiter-Glo, 72 hrs

IC50 [1]: 28 µM
IC50 [3]: 0.07 µM
inhibition at 0.001 µM [4]: 75%
IC50 [5]: 0.036 µM
Structure (SMILES): CC(=O)N1CCC(C(C)(O)c2cc(F)c3c(c2)C(=O)N(Cc2ccc(Cl)cn2)[C@@]3(OCC2(C#N)CC2)c2ccc(Cl)cc2)CC1 (single isomer, unassigned) [Example 301]
IC50 [2]: 12 µM
